The text below walks through data of ChEMBL document CHEMBL4251666, “Quest for Efficacious Next-Generation Taxoid Anticancer Agents and Their Tumor-Targeted Delivery” (J Nat Prod, 2018).

In general, IC50 refers to the concentration needed to halve the response being measured. High values mean a need for much substance, low ones inhibition by little substance.

Structures are written as SMILES.

One test deals with HCT-116. The test can be described thus: Cytotoxicity against CD133 positive human HCT116 cells. The class given is functional, cell-based.
Test [1] can be described thus: Cytotoxicity against human CD133/CD44 positive PC3MM2 cells assessed as cell death at 0.01 to 10 uM after 72 hrs by MTT assay. It counts as functional. Background: Tetrazolium dyes change colour on reduction, which living cells bring about.
Test [2] can be described thus: Cytotoxicity against human CD133/CD44 positive PPT2 cells assessed as cell death at 0.01 to 10 uM after 72 hrs by MTT assay. It counts as functional.
The test system of test [3] is MCF7. The test is described as follows: Cytotoxicity against human MCF7 cells. The class given is functional, cell-based.
Another test relates to A121. The test can be described thus: Cytotoxicity against human A121 cells. It counts as functional, cell-based.
The test system of the next test is A549. The test is described as follows: Cytotoxicity against human A549 cells. The class given is functional, cell-based.
The subject of test [4] is MCF7. The test is described as follows: Cytotoxicity against human paclitaxel-resistant MCF7 cells after 72 hrs by MTT assay. It counts as functional, cell-based. The note with it: MCF7, 72 h.
The nature of test [5]: Cytotoxicity against human MDA435/LCC6 cells. It counts as functional, cell-based. The note with it: MDA-435/LCC6.

`CC(=O)O[C@H]1C(=O)[C@@]2(C)[C@H]([C@H](OC(=O)c3ccccc3)[C@]3(O)C[C@H](OC(=O)[C@H](O)[C@@H](NC(=O)c4ccccc4)c4ccccc4)C(C)=C1C3(C)C)[C@]1(OC(C)=O)CO[C@@H]1C[C@@H]2O` [PACLITAXEL]: the midpoint of inhibition in the test with HCT-116, the IC50, lay at 33.8 nM.

Take `CN(Cc1cnc2nc(N)nc(N)c2n1)c1ccc(C(=O)N[C@@H](CCC(=O)O)C(=O)O)cc1` [METHOTREXATE]: the IC50 in the test with HCT-116 was determined as 32.7 nM. Turning to `CO[C@]12C=C[C@](C)(O1)[C@@H](OC(=O)/C=C/c1cn(C)cn1)C[C@H]1C(C)=CC[C@H](C(C)C)[C@H]1/C=C\2CO[C@@H]1OC[C@@H](O)[C@@H](O)[C@@H]1OC(C)=O` [ELEUTHEROBIN], the Activity in test [1] and in test [2] was 60% each time.

With `CC(=O)O[C@H]1C(=O)[C@@]2(C)[C@H]([C@H](OC(=O)C=C(C)C)[C@]3(O)C[C@H](OC(=O)[C@H](O)[C@H](C=C(C)C)NC(=O)OC(C)(C)C)C(C)=C1C3(C)C)[C@]1(OC(C)=O)CO[C@@H]1C[C@@H]2O`, the IC50 in the test on MCF7 [3], in the test with A121 and in the test on A549 was 0.9 nM in each case. For `CC(=O)O[C@H]1C(=O)[C@@]2(C)[C@H]([C@H](OC(=O)c3ccccc3)[C@]34OC(=O)O[C@H]3[C@H](OC(=O)[C@H](O)[C@H](C=C(C)C)NC(=O)OC(C)(C)C)C(C)=C1C4(C)C)[C@]1(OC(C)=O)CO[C@@H]1C[C@@H]2O`, inhibition with MCF7 [4] was half-maximal at 66.7 nM (IC50). Same read-out and setting: in the case of `CC(=O)O[C@@]12CO[C@@H]1C[C@H](O)[C@@]1(C)C(=O)[C@H](OC(=O)C3CC3)C3=C(C)[C@@H](OC(=O)[C@H](O)[C@H](C=C(C)C)NC(=O)OC(C)(C)C)C[C@@](O)([C@@H](OC(=O)c4cccc(OC(F)(F)F)c4)[C@H]21)C3(C)C` it was 34.9 nM. Regarding `CC(=O)O[C@@]12CO[C@@H]1C[C@H](O)[C@@]1(C)C(=O)[C@H](OC(=O)C3CC3)C3=C(C)[C@@H](OC(=O)[C@H](O)[C@H](C=C(C)C)NC(=O)OC(C)(C)C)C[C@@](O)([C@@H](OC(=O)c4ccccc4)[C@H]21)C3(C)C`, the IC50 came out at 0.28 nM in the test on HCT-116 and 80.5 nM in the test on MCF7 [4]. For the compound `CC(=O)O[C@@]12CO[C@@H]1C[C@H](O)[C@@]1(C)C(=O)[C@H](OC(=O)N(C)C)C3=C(C)[C@@H](OC(=O)[C@H](O)[C@H](C=C(F)F)NC(=O)OC(C)(C)C)C[C@@](O)([C@@H](OC(=O)c4ccccc4)[C@H]21)C3(C)C`, 0.14 nM corresponded to half-maximal inhibition in the test with HCT-116 (IC50). For `CC(=O)O[C@@]12CO[C@@H]1C[C@H](O)[C@@]1(C)C(=O)[C@H](OC(=O)N(C)C)C3=C(C)[C@@H](OC(=O)[C@H](O)[C@H](C=C(C)C)NC(=O)OC(C)(C)C)C[C@@](O)([C@@H](OC(=O)c4cccc(OC(F)(F)F)c4)[C@H]21)C3(C)C`, 31.4 nM corresponded to half-maximal inhibition with MCF7 [4] (IC50). On to `CC(=O)O[C@@]12CO[C@@H]1C[C@H](O)[C@@]1(C)C(=O)[C@H](OC(=O)N(C)C)C3=C(C)[C@@H](OC(=O)[C@H](O)[C@H](C=C(C)C)NC(=O)OC(C)(C)C)C[C@@](O)([C@@H](OC(=O)c4ccccc4)[C@H]21)C3(C)C`, for which the midpoint of inhibition with HCT-116, the IC50, lay at 0.83 nM. In the case of `CC(=O)O[C@H]1C(=O)[C@@]2(C)[C@H]([C@H](OC(=O)c3cccc(OC(F)(F)F)c3)[C@]3(O)C[C@H](OC(=O)[C@H](O)[C@H](C=C(C)C)NC(=O)OC(C)(C)C)C(C)=C1C3(C)C)[C@]1(OC(C)=O)CO[C@@H]1C[C@@H]2O`, in the test on MCF7 [4], the IC50 came to 19 nM. This counts as double-digit nanomolar. Consider `CC[C@@]1(O)C(=O)OCc2c1cc1n(c2=O)Cc2cc3c(CN(C)C)c(O)ccc3nc2-1` [TOPOTECAN], for which the IC50 in the test on HCT-116 worked out at 451 nM.

As to `CCC(=O)O[C@H]1C(=O)[C@@]2(C)[C@H]([C@H](OC(=O)c3cccc(OC)c3)[C@]3(O)C[C@H](OC(=O)[C@H](O)[C@H](C=C(C)C)NC(=O)OC(C)(C)C)C(C)=C1C3(C)C)[C@]1(OC(C)=O)CO[C@@H]1C[C@@H]2O`, in the test with MCF7 [4], the IC50 was found to be 21.7 nM. Turning to `COc1cccc2c1C(=O)c1c(O)c3c(c(O)c1C2=O)C[C@@](O)(C(=O)CO)C[C@@H]3O[C@H]1C[C@H](N)[C@H](O)[C@H](C)O1` [DOXORUBICIN], half-maximal inhibition in the test on HCT-116 (IC50) was put at 78 nM. Regarding `CC(=O)O[C@H]1C(=O)[C@@]2(C)[C@H]([C@@H]3OC(=O)c4ccccc4OC/C=C/CC[C@H](NC(=O)OC(C)(C)C)[C@@H](O)C(=O)O[C@H]4C[C@]3(O)C(C)(C)C1=C4C)[C@]1(OC(C)=O)CO[C@@H]1C[C@@H]2O`, the IC50 in test [5] is 390 nM. As to `CC(=O)O[C@@]12CO[C@@H]1C[C@H](O)[C@@]1(C)C(=O)[C@H](OC(=O)N(C)C)C3=C(C)[C@@H](OC(=O)[C@H](O)[C@H](C=C(C)C)NC(=O)OC(C)(C)C)C[C@@](O)([C@@H](OC(=O)c4cccc(C)c4)[C@H]21)C3(C)C`, in the test with HCT-116, the IC50 turned out to be 0.24 nM.
